In one data set the test system is Phytophthora infestans. The class given is in vivo, Phytophthora infestans on tomato. The following applies: hydrazone 50 ppm with 50 μM CuCl2.2H2O, applied 24 h before inoculation; assessed 7 days after inoculation; tomato late blight.
For data set [1], the system named is Leptosphaeria nodorum (LEPTNO). Kind of data set: In vitro fungitoxicity of hydrazones with and without copper towards Leptosphaeria nodorum (Example 26). The class given is cell-based. The following applies: test compound Concn. 0.05 μg/mL, 72 h at 25° C.; for inhibition of growth at 0.05 µg/mL: Parastagonospora nodorum, 72 h, copper-minus medium, read-out: LEPTNO % Inhn. Minus Copper Observed; for LEPTNO % Inhn. Plus Copper Observed: copper-plus medium (CuCl2 10 μM).

The structures appear in SMILES notation.

In turn, `O=C(N/N=C/c1cc(C(F)(F)F)ccc1O)c1cccc([N+](=O)[O-])c1` [Example 441] registered a melting point of 218 to 220 °C. Also, the “TLB % Control” value in the data set on Phytophthora infestans came out at 96.0%. In data set [1], the inhibition of growth at 0.05 µg/mL is 0% and the “LEPTNO % Inhn. Plus Copper Observed” value is listed as 100.0%.
The corresponding values for `O=C(N/N=C/c1cc(C(F)(F)F)ccc1O)c1ccc([N+](=O)[O-])cc1` [Example 442] are 259 to 265 °C, 98.0%, 0% and 100.0%.
The matching figures for `O=C(N/N=C/c1cc(C(F)(F)F)ccc1O)c1ccccc1C(F)(F)F` [Example 444]: 174 to 176 °C, 91.0%, 0% and 100.0%.
As for `Cc1ccc(C(=O)N/N=C/c2cc(C(F)(F)F)ccc2O)c(O)c1` [Example 445], the melting point is 264 to 271 °C. The “TLB % Control” value in the data set with Phytophthora infestans stood at 90.0%. In data set [1], the inhibition of growth at 0.05 µg/mL was found to be 13.2% and the “LEPTNO % Inhn. Plus Copper Observed” value is reported as 100.0%.
Take `Cc1ccc(C(=O)N/N=C/c2cc(Cl)ccc2O)c(O)c1` [Example 446]: the melting point is 282 to 286 °C. Besides, in the data set on Phytophthora infestans, the “TLB % Control” value is recorded as 57.0%. In data set [1], the inhibition of growth at 0.05 µg/mL came to 23.5% and the “LEPTNO % Inhn. Plus Copper Observed” value was 95.4%.
As for `Cc1cccc(C(=O)N/N=C/c2c(C(F)(F)F)ccc(Cl)c2O)c1` [Example 447], the melting point is 219 to 221 °C. The “TLB % Control” value with Phytophthora infestans was 100.0%. In data set [1], the inhibition of growth at 0.05 µg/mL is 20% and the “LEPTNO % Inhn. Plus Copper Observed” value was found to be 96.6%.
For the molecule `Cc1ccc(C(=O)N/N=C/c2c(C(F)(F)F)ccc(Cl)c2O)cc1` [Example 448], the melting point is 216 to 218 °C. In addition, the “TLB % Control” value in the data set on Phytophthora infestans was 100.0%. Also, in data set [1], the inhibition of growth at 0.05 µg/mL came to 27.1% and the “LEPTNO % Inhn. Plus Copper Observed” value worked out at 97.5%.
The matching figures for `O=C(N/N=C/c1c(C(F)(F)F)ccc(Cl)c1O)c1cccc(F)c1` [Example 449]: 227 to 229 °C, 92.0%, 7.2% and 98.5%.
In the case of `O=C(N/N=C/c1c(C(F)(F)F)ccc(Cl)c1O)c1ccc(F)cc1` [Example 450], the melting point lay within 231 to 233 °C. Also, in the data set on Phytophthora infestans, the “TLB % Control” value was 100.0%. For the same molecule, in data set [1], the inhibition of growth at 0.05 µg/mL amounted to 1.1% and the “LEPTNO % Inhn. Plus Copper Observed” value is given as 93.5%.
On to `O=C(N/N=C/c1c(C(F)(F)F)ccc(Cl)c1O)c1cccc(Cl)c1` [Example 451], for which the melting point fell in the range of 242 to 245 °C. For the same molecule, the “TLB % Control” value with Phytophthora infestans was 100.0%. In data set [1], the inhibition of growth at 0.05 µg/mL was 4.6% and the “LEPTNO % Inhn. Plus Copper Observed” value worked out at 100.0%.
In turn, `O=C(N/N=C/c1c(C(F)(F)F)ccc(Cl)c1O)c1cccc([N+](=O)[O-])c1` [Example 453] gave a melting point of 277 to 279 °C. Moreover, the “TLB % Control” value in the data set on Phytophthora infestans was 100.0%. Further, in data set [1], the inhibition of growth at 0.05 µg/mL came out at 5.6% and the “LEPTNO % Inhn. Plus Copper Observed” value is 100.0%.
For the molecule `O=C(N/N=C/c1c(C(F)(F)F)ccc(Cl)c1O)c1ccc([N+](=O)[O-])cc1` [Example 454], the melting point was in the range of 305 to 307 °C. Moreover, in the data set on Phytophthora infestans, the “TLB % Control” value was 100.0%. In data set [1], the inhibition of growth at 0.05 µg/mL is 12.4% and the “LEPTNO % Inhn. Plus Copper Observed” value is on record as 100.0%.
As for `Cc1ccc(C(=O)N/N=C/c2c(C(F)(F)F)ccc(Cl)c2O)c(O)c1` [Example 457], the melting point lay within 258 to 260 °C. Also, the “TLB % Control” value in the data set with Phytophthora infestans is given as 100.0%. For the same molecule, in data set [1], the inhibition of growth at 0.05 µg/mL amounted to 6.7% and the “LEPTNO % Inhn. Plus Copper Observed” value was found to be 100.0%.
`C/C(=N\NC(=O)c1ccc(Br)cc1)c1ccccc1O` [Example 458] returned a melting point of 218 to 221 °C. Also, the “TLB % Control” value in the data set with Phytophthora infestans is 46.0%. Moreover, in data set [1], the inhibition of growth at 0.05 µg/mL came to 3.7% and the “LEPTNO % Inhn. Plus Copper Observed” value turned out to be 96.6%.
For `COc1ccc(C(=O)N/N=C(\C)c2ccc(Cl)cc2O)cc1` [Example 459], the melting point fell in the range of 262 to 263 °C. Besides, the “TLB % Control” value in the data set on Phytophthora infestans is recorded as 20.0%. For the same molecule, in data set [1], the inhibition of growth at 0.05 µg/mL was determined as 7.3% and the “LEPTNO % Inhn. Plus Copper Observed” value is listed as 96.9%.
Molecule `C/C(=N\NC(=O)c1ccc(Br)cc1)c1ccc(Cl)cc1O` [Example 460] showed a melting point of 258 to 259 °C. The “TLB % Control” value in the data set with Phytophthora infestans amounted to 39.0%. Also, in data set [1], the inhibition of growth at 0.05 µg/mL is 0% and the “LEPTNO % Inhn. Plus Copper Observed” value was 97.6%.
Regarding `C/C(=N\NC(=O)c1ccc(C(F)(F)F)cc1)c1ccc(Cl)cc1O` [Example 461], the melting point was 244 to 245 °C. The “TLB % Control” value in the data set with Phytophthora infestans was 54.0%. Further, in data set [1], the inhibition of growth at 0.05 µg/mL was 3.4% and the “LEPTNO % Inhn. Plus Copper Observed” value is on record as 96.7%.
The molecule `C/C(=N\NC(=O)c1ccccc1Br)c1ccc(Cl)cc1O` [Example 462] had a melting point of 187 to 188 °C. For the same molecule, the “TLB % Control” value in the data set on Phytophthora infestans was 86.0%. In data set [1], the inhibition of growth at 0.05 µg/mL stood at 0% and the “LEPTNO % Inhn. Plus Copper Observed” value stood at 95.0%.
The corresponding values for `C/C(=N\NC(=O)c1ccccc1O)c1ccc(Cl)cc1O` [Example 463] are 311 to 312 °C, 61.0%, 5.1% and 96.3%.
The corresponding values for `COc1ccc(C(=O)N/N=C(\C)c2cccc(OC)c2O)cc1` [Example 464] are 140 to 141 °C, 93.0%, 6.7% and 94.8%.
As for `COc1cccc(/C(C)=N/NC(=O)c2ccc(Br)cc2)c1O` [Example 465], the melting point lay within 176 to 177 °C. For the same molecule, the “TLB % Control” value with Phytophthora infestans amounted to 93.0%. Besides, in data set [1], the inhibition of growth at 0.05 µg/mL came out at 1.7% and the “LEPTNO % Inhn. Plus Copper Observed” value is given as 96.5%.
The corresponding values for `COc1cccc(/C(C)=N/NC(=O)c2ccc(C(F)(F)F)cc2)c1O` [Example 466] are 175 to 176 °C, 69.0%, 2.7% and 97.9%.
The corresponding values for `COc1cccc(/C(C)=N/NC(=O)c2ccccc2Br)c1O` [Example 467] are 245 to 247 °C, 80.0%, 0% and 95.7%.
Regarding `COc1cccc(/C(C)=N/NC(=O)c2ccccc2O)c1O` [Example 468], the melting point was 255 to 257 °C. Moreover, the “TLB % Control” value with Phytophthora infestans was 92.0%. In data set [1], the inhibition of growth at 0.05 µg/mL was 6.2% and the “LEPTNO % Inhn. Plus Copper Observed” value was determined as 98.1%.
The corresponding values for `COc1ccc(C(=O)N/N=C(\C)c2cc(Cl)cc(Cl)c2O)cc1` [Example 469] are 226 to 227 °C, 95.0%, 1% and 97.8%.
